Test results: PMC11253624, “Unsaturated fatty acid perturbation combats emerging triazole antifungal resistance in the human fungal pathogen Aspergillus fumigatus” (mBio, 2024)
Values after ≈ are worked out from the molar mass of the structure shown. Read-outs that look alike come from different tables or passages of the source.

Experiments:
Scedosporium spp. = assay: CLSI-based microbroth dilution MIC, spectrum of activity; format: cell-based
[1] = Aqueous solubility (nephelometric); format: physicochemical; details: kinetic from dmso stock
Protocol: The maximum aqueous solubility of each compound was determined using a nephelometric method as described ([51]). Each assay comprised three technical replicates, and each assay was repeated at least once. The reported solubility is the average of at least five technical replicates. […]

Blastomyces dematitidis = assay: microbe, parasite or virus in culture; format: cell-based
Histoplasma capsulatum = assay: microbe, parasite or virus in culture; format: cell-based
Candida albicans = assay: CLSI-based microbroth dilution MIC for yeast; format: cell-based
Aspergillus niger = assay: CLSI-based microbroth dilution MIC, spectrum of activity; format: cell-based
Candida auris = assay: CLSI-based microbroth dilution MIC for yeast; format: cell-based; details: Candidozyma auris
Aspergillus fumigatus = assay: Agar-based colony biofilm assay; format: cell-based; details: for inhibition at 0.58 µg/mL / inhibition at 1.16 µg/mL: Aspergillus fumigatus; for growth of parental wild-type strain in the presence of MBX-7591 (of untreated): concentration not given
Fusarium spp. = assay: CLSI-based microbroth dilution MIC, spectrum of activity; format: cell-based; details: solani and oxysporum
[2] = tested on: A. fumigatus CEA10 reference strain; assay: MIC of HTS hits vs A. fumigatus CEA10, CLSI microbroth dilution, with or without 32 µg/mL fluconazole; details: for MIC: Aspergillus fumigatus
[3] = tested on: A. fumigatus strain ATCC46645; assay: Murine model of invasive pulmonary aspergillosis; format: in vivo, mouse
Protocol: Outbred wild-type CD-1 female mice at 20–24 g (Charles River Laboratory, Raleigh, NC, USA) were randomized and housed in autoclaved cages at ≤4 mice per cage with HEPA-filtered air and water. Mice were immunosuppressed by subcutaneous injection with triamcinolone acetonide (Kenalong-10, Bristol-Myer Squibb) at 40 mg/kg of body weight. Twenty-four hours after immune suppression, mice were intranasally inoculated with 2 × 10^6 live conidia (in 40 µL of sterile PBS) or PBS alone as a control. A. fumigatus strain ATCC46645 was grown on 1% GMM for 3 days at 37°C, conidia were collected in 0.01% Tween, and washed three times in sterile PBS. Immediately after fungal inoculation, mice were intraperitoneally (IP) injected with either vehicle (5% DMSO/10% PS80/25% HPBCDX 0.07% sodium acetate) or MBX-7591 at 10 mg/kg of body weight (5% DMSO/10% PS80/25% HPBCDX 0.07% sodium acetate). Mice were injected IP with a second dose of vehicle or MBX-7591 at 10 mg/kg of body weight 8 hours after the first dose of the drug. Mice were sacrificed 24 hours post-fungal challenge, lungs were excised from the chest cavity, rinsed in sterile PBS, and flash frozen for fungal burden analysis. Relative fungal burden was assessed through qPCR quantitation of A. fumigatus 18S rDNA as previously described ([38][–][40]).

Cryptococcus neoformans = assay: FIC checkerboard assay MBX-7591 and oleic acid, C. neoformans; format: cell-based; details: H99, MBX-7591 + 31.25 μg/ml OA
Protocol: Single-treatment controls were completed with 50 µL of media to substitute the volume of the other compound. […] Additional untreated and media-only controls were added to the plate as described above. Incubation of the plates and MIC assessments (individual and in combination) were performed as described above. FIC calculations were done according to the established formula: ∑FIC=MIC combination compound A/MIC individual compound A + MIC combination compound B/MIC individual compound B . Synergy was considered equal or lower than 0.5, and antagonism was considered to be higher than 2. FIC scores reported represent between three and five biological replicates. All antifungal susceptibility testing was done in 96-well plates using RPMI 1640 media buffered with 165 mM of MOPS and pH 7 using NaOH. CLSI-based microbroth dilution assays were done in accordance with M27 ([49]). […] Additionally, an untreated control (100 µL of a stock of 2 × 10^3 spores/mL and 100 µL of media) and a media-only control (200 µL media) were included in the plate. The plate was covered in a Breathe-Eazy membrane to allow for uniform oxygen diffusion throughout the plate and incubated for 24 hours at 35°C (Candida spp.) or 72 hours at 35°C ± 5% CO2 (Cryptococcus neoformans).

O=C(c1ccsc1)N1CCC(Cc2ccc(COc3ccncc3)cc2)CC1 [MBX-7591]
MIC (Scedosporium spp.; NIH: DI19-67, DI15-15, DI19-66, read-out: MIC UTHSC): > 32 µg/mL | MIC (Scedosporium spp.; apiospermum (7D7), prolificans (7D8), JI 2018 "typical" (14E6)): > 39.2 µg/mL | solubility [1]: 50 µM (≈ 19.6 µg/mL) | MIC (Blastomyces dematitidis; strain DI19-271): 0.5 µg/mL (≈ 1.27 µM) | MIC (Blastomyces dematitidis; strain DI19-277): 8 µg/mL (≈ 20.4 µM) | MIC (Blastomyces dematitidis; strain DI19-282): 4 µg/mL (≈ 10.2 µM) | MIC (Histoplasma capsulatum; read-out: MIC UTHSC, strain DI14-269): 4 µg/mL (≈ 10.2 µM) | MIC (Histoplasma capsulatum; read-out: MIC UTHSC, strain DI14-284): 1 µg/mL (≈ 2.55 µM) | MIC (Histoplasma capsulatum; read-out: MIC UTHSC, strain DI17-143): 0.5 µg/mL (≈ 1.27 µM) | MIC (Candida albicans; strain SC5314): > 39.2 µg/mL | MIC (Candida albicans; strain SC5314, read-out: MIC UTHSC): > 32 µg/mL | MIC (Aspergillus niger; Aspergillus niger, strain AN1): > 32 µg/mL | MIC UTHSC (Aspergillus niger; strain AN2): > 32 µg/mL | MIC (Candida auris; Clade I, Clade III): > 39.2 µg/mL | MIC (Candida auris; NIH: DI17-47, DI17-48, DI17-46, read-out: MIC UTHSC): > 32 µg/mL | inhibition at 0.58 µg/mL (Aspergillus fumigatus; AFS35, 0.58 μg/mL, read-out: growth inhibition): ~61% | inhibition at 1.16 µg/mL (Aspergillus fumigatus; AFS35, 1.16 μg/mL, read-out: growth inhibition): ~70% | inhibition at 0.58 µg/mL (Aspergillus fumigatus; phspA:atrR, 0.58 μg/mL, read-out: growth inhibition): ~9% | inhibition at 1.16 µg/mL (Aspergillus fumigatus; phspA:atrR, 1.16 μg/mL, read-out: growth inhibition): ~19% | inhibition at 1.16 µg/mL (Aspergillus fumigatus; read-out: growth inhibition, hspA-atrR;ΔsrbA, 1.16 µg/mL): ~81% | inhibition at 0.58 µg/mL (Aspergillus fumigatus; read-out: growth inhibition, ΔatrR, 0.58 μg/mL): ~69% | inhibition at 1.16 µg/mL (Aspergillus fumigatus; read-out: growth inhibition, ΔatrR, 1.16 μg/mL): ~86% | inhibition at 0.58 µg/mL (Aspergillus fumigatus; read-out: growth inhibition, ΔsrbA, 0.58 μg/mL): ~62% | inhibition at 1.16 µg/mL (Aspergillus fumigatus; read-out: growth inhibition, ΔsrbA, 1.16 μg/mL): ~72% | inhibition at 1.16 µg/mL (Aspergillus fumigatus; read-out: growth inhibition, ΔsrbAΔatrR, 1.16 µg/mL): ~92% | growth of parental wild-type strain in the presence of MBX-7591 (of untreated) (Aspergillus fumigatus; first of two values): ~ 67% | growth of parental wild-type strain in the presence of MBX-7591 (of untreated) (Aspergillus fumigatus; second of two values): ~ 89% | MIC (Fusarium spp.): > 39.2 µg/mL | MIC (Fusarium spp.; read-out: MIC UTHSC): > 32 µg/mL | MIC ([2]; read-out: MBX-7591 MIC vs A. fumigatus (+) FLC): 0.4 µM | MIC ([2]; read-out: MBX-7591 MIC vs A. fumigatus (−) FLC): 1.2 µM | MIC ([2]; read-out: MIC (+Flu)): 5 µM | MIC ([2]; read-out: MIC (-Fluc)): 20 µM | Fold MIC ([2]; MIC-FLC/MIC+FLC, Table S2): 4 | Ratio (MIC −FLC / MIC +FLC) ([2]; Table 1): 3 | host toxicity in the IPA murine model ([3]; 10 mg/kg IP, two doses): no host-associated toxicity | lung fungal burden vs vehicle control (18S rDNA qPCR) ([3]; CD-1 mice, triamcinolone immunosuppressed, 10 mg/kg IP at 0 and 8 hours, lungs at 24 hours): over threefold decrease in fungal burden | FIC value (Cryptococcus neoformans): > 4
